Measurements taken from article PMC4536891, “Insertion of a xylanase in xylose binding protein results in a xylose-stimulated xylanase” (Biotechnology for Biofuels, 2015).

Legend:
parental XynA = molecular target: T1, parental XynA (Bacillus subtilis, UniProt P18429); assay: RBB-xylan hydrolysis by culture supernatant, dye release at […] nm; type: biochemical; details: 1% (m/v) D-xylose; acetate pH 5.5, 37 °C; product inhibition
T1 construct: GH11 xylanase, mature 185 residues; activity ratio measured in culture supernatants

[1] = molecular target: T2, 2091A (XynA inserted in XBP at position 209); assay: intrinsic tryptophan fluorescence titration; type: binding, Escherichia coli; details: 20 mM Hepes pH 7.5, 25 °C; 3 µM protein; XBP domain site, allosteric activator of xylanase
T2 construct: gene xylF; single polypeptide: XBP to A209, linker AG, XynA (1-185), linker GGA, XBP from residue 210; pET28a, E. coli Rosetta (DE3), Ni-NTA (His tag not described); with Endo-1,4-beta-xylanase A

[2] = molecular target: T3, parental XBP (xylose binding protein, XylF) (Escherichia coli, UniProt P37387); assay: intrinsic tryptophan fluorescence titration; details: 20 mM Hepes pH 7.5, 25 °C; 3 µM protein
T3 construct: full XBP expressed in E. coli Rosetta (DE3) and purified; vector, tag and signal peptide of the purified parental XBP not described
T3 sequence (P37387 24-330): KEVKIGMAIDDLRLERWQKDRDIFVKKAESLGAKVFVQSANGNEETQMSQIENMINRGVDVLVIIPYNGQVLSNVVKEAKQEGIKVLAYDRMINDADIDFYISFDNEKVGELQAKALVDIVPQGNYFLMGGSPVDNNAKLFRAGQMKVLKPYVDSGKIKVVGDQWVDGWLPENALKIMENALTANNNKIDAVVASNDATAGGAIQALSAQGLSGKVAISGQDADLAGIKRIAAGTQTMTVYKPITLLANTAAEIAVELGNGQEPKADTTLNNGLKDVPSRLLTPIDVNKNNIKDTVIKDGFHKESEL

[3] = molecular target: T4, 2621B (XynA inserted in XBP at position 262); assay: intrinsic tryptophan fluorescence titration; type: binding, Escherichia coli; details: 20 mM Hepes pH 7.5, 25 °C; 3 µM protein; XBP domain site, allosteric activator of xylanase
T4 construct: gene xylF; single polypeptide: XBP to Q262, linker GGGG, XynA (1-185), linker GA, XBP from residue 263; pET28a, E. coli Rosetta (DE3), Ni-NTA (His tag not described); with Endo-1,4-beta-xylanase A

## OC1OC[C@@H](O)[C@H](O)[C@H]1O (stereo partly drawn) [D-xylose]
Parental XynA
  +xyl/-xyl ratio^a: 0.80 ± 0.04
[1]
  Kd: 150 ± 20 nM
[2]
  Kd: 140 ± 30 nM
[3]
  Kd: 160 ± 10 nM
